Results taken from article PMC4149842 (ChemMedChem, 2014).
Like-named read-outs stand apart in the source and are kept apart here.

What was measured:
[1] = target: T1, human equilibrative nucleoside transporter 1 (hENT1) (Homo sapiens, UniProt Q99808); experiment: inhibition of initial rate of 3H-uridine; type: cell-based
T1 sequence (Q99808 2-456): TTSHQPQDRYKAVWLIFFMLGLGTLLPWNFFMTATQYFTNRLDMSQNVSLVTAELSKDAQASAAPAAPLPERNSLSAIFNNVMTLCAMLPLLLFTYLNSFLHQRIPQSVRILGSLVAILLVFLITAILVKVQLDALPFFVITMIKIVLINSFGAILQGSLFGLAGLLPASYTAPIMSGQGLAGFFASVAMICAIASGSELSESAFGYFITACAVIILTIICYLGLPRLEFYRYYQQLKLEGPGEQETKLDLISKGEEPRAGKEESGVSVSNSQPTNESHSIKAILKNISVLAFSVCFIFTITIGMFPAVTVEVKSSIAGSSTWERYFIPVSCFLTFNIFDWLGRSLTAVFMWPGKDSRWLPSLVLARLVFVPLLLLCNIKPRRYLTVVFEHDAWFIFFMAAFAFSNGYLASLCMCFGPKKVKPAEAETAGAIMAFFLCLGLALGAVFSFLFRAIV

[2] = target: T1, human equilibrative nucleoside transporter 1 (hENT1); experiment: inhibition of initial rate of 3H-uridine; type: cell-based; remark: listed apart in the source

Row | IC50 [1] [nM] | IC50 [2] [nM] | Compound
1 | 123 ± 31 |  | NC(=O)c1cn([C@@H]2O[C@H](CO)[C@@H](O)[C@H]2O)c2ncnc(NCc3ccc([N+](=O)[O-])cc3)c12 [2c, 5-Carboxamido-4-(4-nitrobenzylamino)-7-(β-D-ribofuranosyl)pyrrolo[2,3-d]pyrimidine]
2 |  | > 1000 | O=[N+]([O-])c1ccc(CNc2ncnc3c2ccn3[C@@H]2O[C@H](CO)[C@@H](O)[C@H]2O)cc1 [2b, 4-(4-Nitrobenzylamino)-7-(β-D-ribofuranosyl)pyrrolo[2,3-d]pyrimidine]
